Where two headings read alike, the source gives them in different places. Ends that are not written are not given here.
Assays:
Type in all cases: cell-based
[1] = test system: Staphylococcus aureus clinical isolate 52,013
Summary of the method: (§1)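 MIC50 values come from a liquid growth-inhibition assay: Mueller Hinton broth, inoculum of […] from McFarland 0.5 cultures, peptide at final 6.25–200 μM, 24 h at 37°C, OD620 read-out. 50% growth inhibition defined the MIC50.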

[2] = test system: Staphylococcus aureus clinical isolate 48,575
Summary of the method: as §1

[3] = test system: Staphylococcus aureus clinical isolate 48,577
Summary of the method: as §1

[4] = test system: Pseudomonas aeruginosa clinical isolate 48,526
Summary of the method: as §1

[5] = test system: Pseudomonas aeruginosa clinical isolate 48,458
Summary of the method: as §1

[6] = test system: Enterococcus faecium clinical isolate 1,462
Summary of the method: as §1

[7] = test system: Klebsiella pneumoniae clinical isolate 50,181
Summary of the method: as §1

[8] = test system: Klebsiella pneumoniae clinical isolate 51,009
Summary of the method: as §1

[9] = test system: Enterococcus faecium clinical isolate 1,040
Summary of the method: as §1

[10] = test system: Enterococcus faecium clinical isolate 550
Summary of the method: as §1

[11] = test system: Enterococcus faecium clinical isolate 1,225
Summary of the method: as §1

[12] = test system: Enterococcus faecium clinical isolate 1,461
Summary of the method: as §1

[13] = test system: Klebsiella pneumoniae clinical isolate 50,424
Summary of the method: as §1

[14] = test system: Staphylococcus aureus clinical isolate 43,337
Summary of the method: as §1

[15] = test system: Pseudomonas aeruginosa clinical isolate 48,221
Summary of the method: as §1

[16] = test system: Klebsiella pneumoniae clinical isolate 49,644
Summary of the method: as §1

[17] = test system: Pseudomonas aeruginosa clinical isolate 48,220
Summary of the method: as §1

RRWQWR-NH2 [LfcinB (20–25), reference compound]
MIC50 ([1]; S. aureus isolate 52,013, broth microdilution, 24 h 37°C, OD620, 50% growth inhibition): 5.1 µM
MBC ([1]; S. aureus isolate 52,013, plated on agar 18 h 37°C, 99.9% reduction): >100 µM
MIC50 ([2]; S. aureus isolate 48,575, broth microdilution, 24 h 37°C, OD620, 50% growth inhibition): 3.7 µM
MBC ([2]; S. aureus isolate 48,575, plated on agar 18 h 37°C, 99.9% reduction): >100 µM
MIC50 ([3]; S. aureus isolate 48,577, broth microdilution, 24 h 37°C, OD620, 50% growth inhibition): 3.7 µM
MBC ([3]; S. aureus isolate 48,577, plated on agar 18 h 37°C, 99.9% reduction): >100 µM
MIC50 ([4]; P. aeruginosa isolate 48,526, broth microdilution, 24 h 37°C, OD620, 50% growth inhibition): >100 µM
MBC ([4]; P. aeruginosa isolate 48,526, plated on agar 18 h 37°C, 99.9% reduction): >100 µM
MIC50 ([5]; P. aeruginosa isolate 48,458, broth microdilution, 24 h 37°C, OD620, 50% growth inhibition): >100 µM
MBC ([5]; P. aeruginosa isolate 48,458, plated on agar 18 h 37°C, 99.9% reduction): >100 µM
MIC50 ([6]; E. faecium isolate 1,462, broth microdilution, 24 h 37°C, OD620, 50% growth inhibition): >100 µM
MBC ([6]; E. faecium isolate 1,462, plated on agar 18 h 37°C, 99.9% reduction): >100 µM
MIC50 ([7]; K. pneumoniae isolate 50,181, broth microdilution, 24 h 37°C, OD620, 50% growth inhibition): >100 µM
MBC ([7]; K. pneumoniae isolate 50,181, plated on agar 18 h 37°C, 99.9% reduction): >100 µM
MIC50 ([8]; K. pneumoniae isolate 51,009, broth microdilution, 24 h 37°C, OD620, 50% growth inhibition): >100 µM
MBC ([8]; K. pneumoniae isolate 51,009, plated on agar 18 h 37°C, 99.9% reduction): >100 µM
MIC50 ([9]; E. faecium isolate 1,040, broth microdilution, 24 h 37°C, OD620, 50% growth inhibition): >100 µM
MBC ([9]; E. faecium isolate 1,040, plated on agar 18 h 37°C, 99.9% reduction): >100 µM
MIC50 ([10]; E. faecium isolate 550, broth microdilution, 24 h 37°C, OD620, 50% growth inhibition): >100 µM
MBC ([10]; E. faecium isolate 550, plated on agar 18 h 37°C, 99.9% reduction): >100 µM
MIC50 ([11]; E. faecium isolate 1,225, broth microdilution, 24 h 37°C, OD620, 50% growth inhibition): >100 µM
MBC ([11]; E. faecium isolate 1,225, plated on agar 18 h 37°C, 99.9% reduction): >100 µM
MIC50 ([12]; E. faecium isolate 1,461, broth microdilution, 24 h 37°C, OD620, 50% growth inhibition): >100 µM
MBC ([12]; E. faecium isolate 1,461, plated on agar 18 h 37°C, 99.9% reduction): >100 µM
MIC50 ([13]; K. pneumoniae isolate 50,424, broth microdilution, 24 h 37°C, OD620, 50% growth inhibition): 11.3 µM
MBC ([13]; K. pneumoniae isolate 50,424, plated on agar 18 h 37°C, 99.9% reduction): >100 µM
MIC50 ([14]; S. aureus isolate 43,337, broth microdilution, 24 h 37°C, OD620, 50% growth inhibition): 3.7 µM
MBC ([14]; S. aureus isolate 43,337, plated on agar 18 h 37°C, 99.9% reduction): >100 µM
MIC50 ([15]; P. aeruginosa isolate 48,221, broth microdilution, 24 h 37°C, OD620, 50% growth inhibition): >100 µM
MBC ([15]; P. aeruginosa isolate 48,221, plated on agar 18 h 37°C, 99.9% reduction): >100 µM
MIC50 ([16]; K. pneumoniae isolate 49,644, broth microdilution, 24 h 37°C, OD620, 50% growth inhibition): >100 µM
MBC ([16]; K. pneumoniae isolate 49,644, plated on agar 18 h 37°C, 99.9% reduction): >100 µM
MIC50 ([17]; P. aeruginosa isolate 48,220, broth microdilution, 24 h 37°C, OD620, 50% growth inhibition): >100 µM
MBC ([17]; P. aeruginosa isolate 48,220, plated on agar 18 h 37°C, 99.9% reduction): >100 µM

RWQWRWQWR [PLS]
MBC ([1]; clinical isolate 52,013, 18 h): 100.0 µM
MIC50 ([1]; clinical isolate 52,013, 24 h): 8.3 µM
MBC ([2]; clinical isolate 48,575, 18 h): 100.0 µM
MIC50 ([2]; clinical isolate 48,575, 24 h): 36.5 µM
MBC ([3]; clinical isolate 48,577, 18 h): 100.0 µM
MBC ([4]; clinical isolate 48,526, 18 h): 100.0 µM
MIC50 ([4]; clinical isolate 48,526, 24 h): >100 µM
MBC ([5]; clinical isolate 48,458, 18 h): >100 µM
MIC50 ([5]; clinical isolate 48,458, 24 h): >100 µM
MBC ([6]; clinical isolate 1,462, 18 h): 100.0 µM
MIC50 ([6]; clinical isolate 1,462, 24 h): 5.7 µM
MBC ([7]; clinical isolate 50,181, 18 h): >100 µM
MIC50 ([7]; clinical isolate 50,181, 24 h): >100 µM
MBC ([8]; clinical isolate 51,009, 18 h): 100.0 µM
MIC50 ([8]; clinical isolate 51,009, 24 h): 25.6 µM
MBC ([9]; clinical isolate 1,040, 18 h): >100 µM
MIC50 ([9]; clinical isolate 1,040, 24 h): >100 µM
MBC ([10]; clinical isolate 550, 18 h): 100.0 µM
MIC50 ([10]; clinical isolate 550, 24 h): >100 µM
MBC ([11]; clinical isolate 1,225, 18 h): 100.0 µM
MIC50 ([11]; clinical isolate 1,225, 24 h): >100 µM
MBC ([12]; clinical isolate 1,461, 18 h): 100.0 µM
MIC50 ([12]; clinical isolate 1,461, 24 h): >100 µM
MBC ([13]; clinical isolate 50,424, 18 h): >100 µM
MIC50 ([13]; clinical isolate 50,424, 24 h): 5.6 µM
MBC ([14]; clinical isolate 43,337, 18 h): 50.0 µM
MIC50 ([14]; clinical isolate 43,337, 24 h): 13.0 µM
MBC ([15]; clinical isolate 48,221, 18 h): >100 µM
MIC50 ([15]; clinical isolate 48,221, 24 h): >100 µM
MBC ([16]; clinical isolate 49,644, 18 h): 100.0 µM
MIC50 ([16]; clinical isolate 49,644, 24 h): 12.5 µM
MBC ([17]; clinical isolate 48,220, 18 h): >100 µM
MIC50 ([17]; clinical isolate 48,220, 24 h): >100 µM

From PMC5840262, “Design, Synthesis and Evaluation of Branched RRWQWR-Based Peptides as Antibacterial Agents Against Clinically Relevant Gram-Positive and Gram-Negative Pathogens” (Frontiers in Microbiology, 2018)
